Laboratory results published in US10072017B2, “Compounds and methods for the treatment of cystic fibrosis” (Flatley Discovery Lab, LLC, priority 2015, dated 2018).

Molecular target: T1, CFTR (Homo sapiens, UniProt P13569, DEL508-508)
T1 construct: Primary CF airway epithelial cells were obtained from the UNC Cystic Fibrosis Tissue Procurement and Cell Culture Core; host or cells: primary CF airway epithelial cells
Assay: Equivalent current assay in Primary CF airway epithelial cells (NAUC)
Type: cell-based
Details: 24 h, normalized to VX809 (3 μM) positive control; for Nauc @ 3 μM: 3 μM test compound; for Nauc @ 10 μM: 10 μM test compound
Summary of the method: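 NAUC is the area under the curve from forskolin (10 μM) plus VX770 (1 μM) addition to CFTR-172 (20 μM) block, after benzamil (5 μM). It is corrected for vehicle and scaled to 3 μM VX809 as 1.0 and DMSO as 0.0. Cells were exposed for 24 h to compounds with VX809; medians of ≥4 replicates were fitted sigmoidally.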

T1 sequence (P13569 with tags, fused parts or gaps DEL508-508): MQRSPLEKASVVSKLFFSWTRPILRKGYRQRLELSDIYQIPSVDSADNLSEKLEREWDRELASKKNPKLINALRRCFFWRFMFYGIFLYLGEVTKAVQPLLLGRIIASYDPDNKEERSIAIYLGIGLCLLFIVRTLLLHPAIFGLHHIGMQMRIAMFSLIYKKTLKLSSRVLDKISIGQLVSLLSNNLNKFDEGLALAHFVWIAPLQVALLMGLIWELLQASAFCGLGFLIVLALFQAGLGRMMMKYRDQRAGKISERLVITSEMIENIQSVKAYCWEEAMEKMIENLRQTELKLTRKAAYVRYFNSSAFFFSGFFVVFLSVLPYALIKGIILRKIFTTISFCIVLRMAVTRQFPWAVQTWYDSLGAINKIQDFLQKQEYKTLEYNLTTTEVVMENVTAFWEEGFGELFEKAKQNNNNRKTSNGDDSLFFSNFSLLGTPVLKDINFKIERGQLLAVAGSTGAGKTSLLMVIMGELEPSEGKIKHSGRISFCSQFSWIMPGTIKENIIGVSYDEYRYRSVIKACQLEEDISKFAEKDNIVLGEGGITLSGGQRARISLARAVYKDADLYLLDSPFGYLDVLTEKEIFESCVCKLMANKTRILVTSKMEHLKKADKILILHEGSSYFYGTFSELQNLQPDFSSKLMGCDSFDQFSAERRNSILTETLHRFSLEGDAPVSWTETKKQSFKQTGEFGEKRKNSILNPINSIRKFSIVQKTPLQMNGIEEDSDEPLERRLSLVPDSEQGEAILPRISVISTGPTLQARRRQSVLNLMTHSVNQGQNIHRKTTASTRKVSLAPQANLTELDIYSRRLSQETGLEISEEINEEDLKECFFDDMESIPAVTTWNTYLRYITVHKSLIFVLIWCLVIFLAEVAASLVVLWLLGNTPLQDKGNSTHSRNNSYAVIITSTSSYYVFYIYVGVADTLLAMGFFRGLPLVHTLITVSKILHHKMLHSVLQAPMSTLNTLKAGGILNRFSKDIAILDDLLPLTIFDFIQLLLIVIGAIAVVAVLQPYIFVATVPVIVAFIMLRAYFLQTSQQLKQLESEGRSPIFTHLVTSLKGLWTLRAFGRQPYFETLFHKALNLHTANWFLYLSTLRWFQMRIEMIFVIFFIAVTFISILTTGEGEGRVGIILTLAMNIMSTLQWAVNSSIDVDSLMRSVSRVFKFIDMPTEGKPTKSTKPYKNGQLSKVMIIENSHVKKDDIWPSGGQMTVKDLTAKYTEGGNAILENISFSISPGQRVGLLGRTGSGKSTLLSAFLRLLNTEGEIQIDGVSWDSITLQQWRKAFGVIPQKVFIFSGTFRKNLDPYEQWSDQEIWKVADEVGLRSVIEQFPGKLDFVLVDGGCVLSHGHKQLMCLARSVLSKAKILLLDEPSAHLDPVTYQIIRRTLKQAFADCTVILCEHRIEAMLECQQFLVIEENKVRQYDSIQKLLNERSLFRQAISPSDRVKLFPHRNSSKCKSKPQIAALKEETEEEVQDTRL

Q: How did the “Nauc @ 3 μM” value turn out when CC1CC2C3C(=O)N(c4cc(Cl)cc(Cl)c4)C(=O)C3C3(C(=O)Nc4c(Cl)cc(Cl)cc43)N2C1 (centres unmarked) [Example 63] was run?
A: +++ (NAUC “+++” refers to an observed NAUC >170% of positive control)

Q: And the “Nauc @ 10 μM” value?
A: +++ (NAUC “+++” refers to an observed NAUC >170% of positive control)

Q: What does the source list for COc1c(Cl)cc(N2C(=O)C3C4CC(C)(C)CN4C4(C(=O)Nc5c(Cl)cc(Cl)cc54)C3C2=O)cc1Cl (single isomer, unassigned) [Example 4, 5,7-dichloro-2′-(3,5-dichloro-4-methoxyphenyl)-7′,7′-dimethyl-3a′,6′,7′,8′,8a′,8b′-hexahydro-1′H-spiro[indoline-3,4′-pyrrolo[3,4-a]pyrrolizine]-1′,2,3′(2′H)-trione]?
A: Nauc @ 3 μM: +++ (NAUC “+++” refers to an observed NAUC >170% of positive control); Nauc @ 10 μM: ++ (NAUC “++” refers to an observed NAUC 170-140% of positive control)

Q: Which results are given for N#Cc1ccc(CC2NC3(C(=O)Nc4c(Cl)cc(Cl)cc43)C3C(=O)N(c4cc(Cl)cc(Cl)c4)C(=O)C23)cc1 (centres unmarked) [Example 189]?
A: Nauc @ 3 μM: + (NAUC “+” refers to an observed NAUC <140% of positive control); Nauc @ 10 μM: +++ (NAUC “+++” refers to an observed NAUC >170% of positive control)

Q: CC12C(=O)N(c3cc(Cl)cc(Cl)c3)C(=O)C1C1(C(=O)Nc3c(Cl)cc(Cl)cc31)N1CCCC12 (centres unmarked) [Example 44] was tested. Which “Nauc @ 3 μM” value did it give?
A: ++ (NAUC “++” refers to an observed NAUC 170-140% of positive control)

Q: And the “Nauc @ 10 μM” value?
A: + (NAUC “+” refers to an observed NAUC <140% of positive control)

Q: With O=C1[C@H]2[C@H]3CCCN3[C@]3(C(=O)Nc4c(Cl)cc(Cl)cc43)[C@H]2C(=O)N1c1cc(Cl)cc(Cl)c1 (single isomer, unassigned) [Example 1] as the molecule, how does the “Nauc @ 3 μM” value read?
A: +++ (NAUC “+++” refers to an observed NAUC >170% of positive control)

Q: What about the “Nauc @ 10 μM” value of the same molecule?
A: +++ (NAUC “+++” refers to an observed NAUC >170% of positive control)

Q: How did the “Nauc @ 3 μM” value turn out when O=C1C2C3CCCN3C3(C(=O)Nc4c(Cl)cccc43)C2C(=O)N1c1cc(Cl)cc(Cl)c1 (centres unmarked) [Example 75] was run?
A: ++ (NAUC “++” refers to an observed NAUC 170-140% of positive control)

Q: And the “Nauc @ 10 μM” value?
A: + (NAUC “+” refers to an observed NAUC <140% of positive control)

Q: Which results are given for O=C1C2C3CC(C(F)F)CN3C3(C(=O)Nc4c(Cl)cc(Cl)cc43)C2C(=O)N1c1cc(Cl)cc(Cl)c1 (centres unmarked) [Example 136]?
A: Nauc @ 3 μM: +++ (NAUC “+++” refers to an observed NAUC >170% of positive control); Nauc @ 10 μM: +++ (NAUC “+++” refers to an observed NAUC >170% of positive control)

Q: For O=C1C2C3C[C@H](Cl)CN3C3(C(=O)Nc4c(Cl)cc(Cl)cc43)C2C(=O)N1c1cc(O)cc(Cl)c1 (some centres unmarked) [Example 81], which “Nauc @ 3 μM” value is on record?
A: + (NAUC “+” refers to an observed NAUC <140% of positive control)

Q: What about the “Nauc @ 10 μM” value of the same molecule?
A: ++ (NAUC “++” refers to an observed NAUC 170-140% of positive control)

Q: With CC(C)C1NC2(C(=O)Nc3c(Cl)cc(Cl)cc32)C2C(=O)N(c3cc(Cl)cc(Cl)c3)C(=O)C12 (single isomer, unassigned) [Example 242] as the molecule, how does the “Nauc @ 3 μM” value read?
A: +++ (NAUC “+++” refers to an observed NAUC >170% of positive control)

Q: What about the “Nauc @ 10 μM” value of the same molecule?
A: +++ (NAUC “+++” refers to an observed NAUC >170% of positive control)

Q: Which results are given for COc1cc(Cl)cc(N2C(=O)C3C4CC(=C(F)F)CN4C4(C(=O)Nc5c(Cl)cc(Cl)cc54)C3C2=O)c1 (single isomer, unassigned) [Example 139]?
A: Nauc @ 3 μM: ++ (NAUC “++” refers to an observed NAUC 170-140% of positive control); Nauc @ 10 μM: + (NAUC “+” refers to an observed NAUC <140% of positive control)

Q: For COc1c(Cl)cc(N2C(=O)C3C4C[C@H](C(F)(F)F)CN4C4(C(=O)Nc5c(Cl)cc(Cl)cc54)C3C2=O)cc1Cl (some centres unmarked) [Example 245], which “Nauc @ 3 μM” value is on record?
A: +++ (NAUC “+++” refers to an observed NAUC >170% of positive control)

Q: And the “Nauc @ 10 μM” value?
A: +++ (NAUC “+++” refers to an observed NAUC >170% of positive control)

Q: Which “Nauc @ 3 μM” value does the source give for O=C1C2C3CC4(CC4)CN3C3(C(=O)Nc4c(Cl)cc(Cl)cc43)C2C(=O)N1c1cc(Cl)cc(Cl)n1 (centres unmarked) [Example 184] here?
A: +++ (NAUC “+++” refers to an observed NAUC >170% of positive control)

Q: What about the “Nauc @ 10 μM” value of the same molecule?
A: +++ (NAUC “+++” refers to an observed NAUC >170% of positive control)

Q: How did the “Nauc @ 3 μM” value turn out when O=C1C2C(C(=O)N1c1cc(Cl)cc(Cl)c1)C(c1ccc(F)nc1)N1CCCC21 (centres unmarked) [Example 9, 2-(3,5-Dichlorophenyl)-4-(6-fluoropyridin-3-yl)hexahydropyrrolo[3,4-a]pyrrolizine-1,3(2H,4H)-dione] was run?
A: + (NAUC “+” refers to an observed NAUC <140% of positive control)

Q: What about the “Nauc @ 10 μM” value of the same molecule?
A: ++ (NAUC “++” refers to an observed NAUC 170-140% of positive control)

Q: Which results are given for O=C1C2C3CCCN3C3(C(=O)Nc4c(Cl)cc(Cl)cc43)C2C(=O)N1c1cccc(C(F)(F)F)c1 (single isomer, unassigned) [Example 24]?
A: Nauc @ 3 μM: +++ (NAUC “+++” refers to an observed NAUC >170% of positive control); Nauc @ 10 μM: +++ (NAUC “+++” refers to an observed NAUC >170% of positive control)

Q: O=C1C2C(Cc3ccccc3)NC3(C(=O)Nc4c(Cl)cc(Cl)cc43)C2C(=O)N1c1cc(Cl)cc(Cl)c1 (centres unmarked) [Example 154] was tested. Which “Nauc @ 3 μM” value did it give?
A: +++ (NAUC “+++” refers to an observed NAUC >170% of positive control)

Q: And the “Nauc @ 10 μM” value?
A: +++ (NAUC “+++” refers to an observed NAUC >170% of positive control)

Q: Which results are given for COc1cc(Cl)cc(N2C(=O)C3C4C[C@H](Cl)CN4C4(C(=O)Nc5c(Cl)cc(Cl)cc54)C3C2=O)c1 (single isomer, unassigned) [Example 111]?
A: Nauc @ 3 μM: +++ (NAUC “+++” refers to an observed NAUC >170% of positive control); Nauc @ 10 μM: +++ (NAUC “+++” refers to an observed NAUC >170% of positive control)

Q: Which “Nauc @ 3 μM” value does the source give for O=C1C2C3CCCN3C3(C(=O)Nc4c(Cl)cc(F)cc43)C2C(=O)N1c1cc(F)cc(Cl)c1 (centres unmarked) [Example 36] here?
A: + (NAUC “+” refers to an observed NAUC <140% of positive control)

Q: What about the “Nauc @ 10 μM” value of the same molecule?
A: +++ (NAUC “+++” refers to an observed NAUC >170% of positive control)

Q: How did the “Nauc @ 3 μM” value turn out when O=C1C2C(Cc3c(Cl)cccc3Cl)NC3(C(=O)Nc4c(Cl)cc(Cl)cc43)C2C(=O)N1c1cc(Cl)cc(Cl)c1 (centres unmarked) [Example 228] was run?
A: +++ (NAUC “+++” refers to an observed NAUC >170% of positive control)

Q: What about the “Nauc @ 10 μM” value of the same molecule?
A: ++ (NAUC “++” refers to an observed NAUC 170-140% of positive control)

Q: Which results are given for O=C1C2C(Cc3ccccc3Cl)NC3(C(=O)Nc4c(Cl)cc(Cl)cc43)C2C(=O)N1c1cc(Cl)cc(Cl)c1 (centres unmarked) [Example 236]?
A: Nauc @ 3 μM: +++ (NAUC “+++” refers to an observed NAUC >170% of positive control); Nauc @ 10 μM: ++ (NAUC “++” refers to an observed NAUC 170-140% of positive control)

Q: How did the “Nauc @ 3 μM” value turn out when O=C1C2C3CCCN3C3(C(=O)Nc4c(Cl)cc(Cl)cc43)C2C(=O)N1c1cc(C(F)(F)F)cc(C(F)(F)F)c1 (centres unmarked) [Example 26] was run?
A: + (NAUC “+” refers to an observed NAUC <140% of positive control)

Q: And the “Nauc @ 10 μM” value?
A: +++ (NAUC “+++” refers to an observed NAUC >170% of positive control)

Q: For COc1c(Cl)cc(N2C(=O)C3C4C[C@H](Cl)CN4C4(C(=O)Nc5c(Cl)cc(Cl)cc54)C3C2=O)cc1Cl (single isomer, unassigned) [Example 114], which “Nauc @ 3 μM” value is on record?
A: +++ (NAUC “+++” refers to an observed NAUC >170% of positive control)

Q: What about the “Nauc @ 10 μM” value of the same molecule?
A: +++ (NAUC “+++” refers to an observed NAUC >170% of positive control)

Q: What does the source list for COc1c(Cl)cc(N2C(=O)C3C4CC5(CC5)CN4C4(C(=O)Nc5c(Cl)cc(Cl)cc54)C3C2=O)cc1Cl (single isomer, unassigned) [Example 197]?
A: Nauc @ 3 μM: +++ (NAUC “+++” refers to an observed NAUC >170% of positive control); Nauc @ 10 μM: +++ (NAUC “+++” refers to an observed NAUC >170% of positive control)

Q: With O=C1C2C3CC(F)(F)CN3C3(C(=O)Nc4c(Cl)cc(Cl)cc43)C2C(=O)N1c1cc(Cl)cc(Cl)c1 (single isomer, unassigned) [Example 179] as the molecule, how does the “Nauc @ 3 μM” value read?
A: +++ (NAUC “+++” refers to an observed NAUC >170% of positive control)

Q: And the “Nauc @ 10 μM” value?
A: +++ (NAUC “+++” refers to an observed NAUC >170% of positive control)

Q: O=C1C2C(Cc3ccccc3OC(F)(F)F)NC3(C(=O)Nc4c(Cl)cc(Cl)cc43)C2C(=O)N1c1cc(Cl)cc(Cl)c1 (centres unmarked) [Example 222] was tested. Which “Nauc @ 3 μM” value did it give?
A: +++ (NAUC “+++” refers to an observed NAUC >170% of positive control)

Q: And the “Nauc @ 10 μM” value?
A: ++ (NAUC “++” refers to an observed NAUC 170-140% of positive control)

Q: How did the “Nauc @ 3 μM” value turn out when O=C1C2C3CC(C(F)F)CN3C3(C(=O)Nc4c(Cl)cc(Cl)cc43)C2C(=O)N1c1cccc(C(F)(F)F)c1 (centres unmarked) [Example 134] was run?
A: + (NAUC “+” refers to an observed NAUC <140% of positive control)

Q: And the “Nauc @ 10 μM” value?
A: ++ (NAUC “++” refers to an observed NAUC 170-140% of positive control)

Q: O=C1C2C3CC4(CC4)CN3C3(C(=O)Nc4c(Cl)cc(Cl)cc43)C2C(=O)N1c1cc(Cl)cc(Cl)n1 (single isomer, unassigned) [Example 218] was tested. Which “Nauc @ 3 μM” value did it give?
A: +++ (NAUC “+++” refers to an observed NAUC >170% of positive control)

Q: And the “Nauc @ 10 μM” value?
A: +++ (NAUC “+++” refers to an observed NAUC >170% of positive control)

Q: Which “Nauc @ 3 μM” value does the source give for CC(=O)O[C@H]1CC2C3C(=O)N(c4cc(Cl)cc(Cl)c4)C(=O)C3C3(C(=O)N(C(C)=O)c4c(Cl)cc(Cl)cc43)N2C1 (some centres unmarked) [Example 69] here?
A: +++ (NAUC “+++” refers to an observed NAUC >170% of positive control)

Q: What about the “Nauc @ 10 μM” value of the same molecule?
A: + (NAUC “+” refers to an observed NAUC <140% of positive control)

Q: How did the “Nauc @ 3 μM” value turn out when COc1ccccc1CC1NC2(C(=O)Nc3c(Cl)cc(Cl)cc32)C2C(=O)N(c3cc(Cl)cc(Cl)c3)C(=O)C12 (centres unmarked) [Example 201] was run?
A: + (NAUC “+” refers to an observed NAUC <140% of positive control)

Q: And the “Nauc @ 10 μM” value?
A: +++ (NAUC “+++” refers to an observed NAUC >170% of positive control)
